Assay results taken from PMC12677607, “Identification of a Pair of Linear or Cyclic Naturally Inspired Bifunctional Lipopeptide Antibiotics That Overcome Antimicrobial Resistance” (Advanced Science, 2025).
In brackets after ≈: the same amount, converted by molar mass. Numbered stars: 1 amine (or outer) side, 2 acyl side, 3 side chain; on linkers, the order of the positions; unused ones are H or OH. Bridge positions count the residues as written; N and C are the ends. Square brackets hold non-standard residues; d marks the D form. Peptide text beside a SMILES is read from it. * marks the point of attachment. X3 = CCCCC[C@H](CC(=O)[*:1])O[*:2]; Myristoyl = CCCCCCCCCCCCCC(=O)*; dOrn = NCCC[C@@H](N)C(=O)O; Orn = NCCC[C@H](N)C(=O)O; Dab = NCC[C@H](N)C(=O)O; Dap = NC[C@H](N)C(=O)O

Legend:
Format in all cases: cell-based
Escherichia coli DH5α = assay: MIC assay (broth micro-dilution); settings: Table S11; LB broth, 37 °C, 16 h, n = 2
Method: (§1) All MIC assays were performed two independent times (n = 2) in 96‐well plates using a broth micro‐dilution method. The lowest concentration of that inhibited visible microbial growth was recorded as the MIC value.
(§2) For most of bacterial strains, overnight cultures were diluted 5000‐fold in LB broth. For E. faecium and S. aureus, overnight cultures were diluted 1000‐ and 10000‐fold in LB broth, respectively. 100 µL of diluted cells was mixed with 100 µL of LB broth containing each peptide ranging from 64 to 0.125 µg mL^−1 at 2‐fold serial dilutions.

Shigella Castellani LXX = assay: MIC assay (broth micro-dilution); settings: Table S11; LB broth, 37 °C, 16 h, n = 2
Method: as §1, §2

[1] = tested on: Acinetobacter baumannii 1104008; assay: microbe, parasite or virus in culture; settings: Table S11; LB broth, 37 °C, 16 h, n = 2
Method: as §1, §2

[2] = tested on: Acinetobacter baumannii ATCC 17978; assay: microbe, parasite or virus in culture; settings: ATCC 17978, 16 h
Method: as §1, §2

[3] = tested on: Acinetobacter baumannii ATCC 19606; assay: microbe, parasite or virus in culture; settings: ATCC 19606, 16 h
Method: as §1, §2

[4] = tested on: Acinetobacter baumannii P53; assay: microbe, parasite or virus in culture; settings: Table S11; LB broth, 37 °C, 16 h, n = 2
Method: as §1, §2

Enterococcus faecalis 26 = assay: microbe, parasite or virus in culture; settings: 26, 16 h
Method: as §1, §2

Enterococcus faecalis 28 = assay: microbe, parasite or virus in culture; settings: 28, 16 h
Method: as §1, §2

[5] = tested on: Enterococcus faecalis ATCC 29212; assay: microbe, parasite or virus in culture; settings: ATCC 29212, 16 h
Method: as §1, §2

[6] = tested on: Enterococcus faecium 35682; assay: microbe, parasite or virus in culture
Method: as §1, §2

[7] = tested on: Klebsiella pneumoniae ATCC 13883; assay: microbe, parasite or virus in culture; settings: ATCC 13883, 16 h
Method: as §1, §2

[8] = tested on: Klebsiella pneumoniae CRKP 5452; assay: microbe, parasite or virus in culture; settings: Table S11; LB broth, 37 °C, 16 h, n = 2
Method: as §1, §2

[9] = tested on: Klebsiella pneumoniae CRKP HS11286; assay: microbe, parasite or virus in culture; settings: CRKP HS11286, 16 h
Method: as §1, §2

[10] = tested on: Klebsiella pneumoniae NCTC 5056; assay: microbe, parasite or virus in culture; settings: NCTC 5056, 16 h
Method: as §1, §2

[11] = tested on: Pseudomonas aeruginosa ATCC 9027; assay: microbe, parasite or virus in culture; settings: ATCC 9027, 16 h
Method: as §1, §2

[12] = tested on: Pseudomonas aeruginosa PAO1; assay: microbe, parasite or virus in culture
Method: as §1, §2

[13] = tested on: Salmonella enterica ATCC 14028; assay: microbe, parasite or virus in culture; settings: ATCC 14028, 16 h
Method: as §1, §2

[14] = tested on: Salmonella typhimurium LXX; assay: microbe, parasite or virus in culture; settings: murium LXX, 16 h
Method: as §1, §2

[15] = tested on: Staphylococcus aureus ATCC 25923; assay: microbe, parasite or virus in culture; settings: ATCC 25923, 16 h
Method: as §1, §2

[16] = tested on: Staphylococcus aureus ATCC 6538; assay: microbe, parasite or virus in culture; settings: ATCC 6538, 16 h
Method: as §1, §2

[17] = tested on: Staphylococcus aureus Newman; assay: microbe, parasite or virus in culture; settings: Newman, 16 h
Method: as §1, §2

[18] = tested on: Staphylococcus aureus USA300; assay: microbe, parasite or virus in culture; settings: for antibacterial activity (MIC) S. aureus USA300: Figure S127b, wild type
Method: as §1, §2

[19] = tested on: Streptococcus mutans ATCC 25175; assay: microbe, parasite or virus in culture; settings: ATCC 25175, 16 h
Method: as §1, §2

[20] = tested on: Streptococcus pyogenes ATCC 19615; assay: microbe, parasite or virus in culture; settings: Table S11; LB broth, 37 °C, 16 h, n = 2
Method: as §1, §2

[21] = tested on: Vibrio alginolyticus XSBZ14; assay: microbe, parasite or virus in culture; settings: 16 h
Method: as §1, §2

[22] = tested on: Candida albicans ATCC 10231; assay: MIC assay (YPD broth); settings: Table S11; YPD broth, 30 °C, 16 h, n = 2
Method: as §1
(§3) For fungal strains, overnight cultures were diluted 2000‐fold in YPD broth. 100 µL of diluted cells was mixed with 100 µL of YPD broth containing each peptide ranging from […] 64 to 0.125 µg mL^−1 at 2‐fold serial dilutions.

[23] = tested on: Candida albicans ATCC 64550; settings: ATCC 64550, 16 h
Method: as §1, §3

[24] = tested on: S. aureus USA300 Cls2A338stop; assay: MIC against telomycin-resistant mutant; settings: for antibacterial activity (MIC) S. aureus USA300 Cls2A338stop: Figure S127b, telomycin-resistant mutant
Method: as §1, §2
(§4) Overnight cultures S. aureus USA300 were diluted 10000‐fold in LB broth, and 100 µL of dilute cell suspension was added to 96‐well plates containing 100 µL serially diluted aquicidine C4, telomycin, and daptomycin (with 15 mM CaCl2). Overnight cultures K. pneumoniae CRKP5452 were diluted 5000‐fold in LB broth, and 100 µL of dilute cell suspension was added to 96‐well plates containing 100 µL serially diluted aquicidine L and colistin. After an incubation of 24 h at 37 °C, the MIC value was determined. […] The MIC value was recorded as described above, and the process was repeated daily for 21 days. Experiments were performed two independent times (n = 2).
(§5) Single‐nucleotide polymorphisms (SNPs) for telomycin‐, daptomycin‐ or colistin‐resistant mutants were identified using SNIPPY by mapping DNBSEQ‐seq reads to the reference genome of S. aureus USA300 or K. pneumoniae CRKP5452.

[25] = tested on: S. aureus USA300 MprFT345A; assay: MIC against daptomycin-resistant mutant; settings: for antibacterial activity (MIC) S. aureus USA300 MprFT345A: Figure S127b, daptomycin-resistant mutant
Method: as §1, §2, §4, §5

[26] = Table S11, LB broth, 37 °C, 16 h, n = 2

Compound	MIC Shigella Castellani LXX (Shigella Castellani LXX)	MIC Acinetobacter baumannii 1104008 [1]	MIC Acinetobacter baumannii ATCC 17978 [2]	MIC Acinetobacter baumannii ATCC 19606 [3]	MIC Acinetobacter baumannii P53 [4]	MIC Enterococcus faecalis 26 (Enterococcus faecalis 26)	MIC Enterococcus faecalis 28 (Enterococcus faecalis 28)	MIC Enterococcus faecalis ATCC 29212 [5]	MIC Klebsiella pneumoniae ATCC 13883 [7]	MIC Klebsiella pneumoniae CRKP 5452 [8]	MIC Klebsiella pneumoniae CRKP HS11286 [9]	MIC Klebsiella pneumoniae NCTC 5056 [10]	MIC Pseudomonas aeruginosa ATCC 9027 [11]	MIC Salmonella enterica ATCC 14028 [13]	MIC Salmonella typhimurium LXX [14]	MIC Staphylococcus aureus ATCC 25923 [15]	MIC Staphylococcus aureus ATCC 6538 [16]	MIC Staphylococcus aureus Newman [17]	MIC Streptococcus mutans ATCC 25175 [19]	MIC Streptococcus pyogenes ATCC 19615 [20]	also measured
CCCCCCCCCCCCCC(=O)N[C@@H](Cc1ccccc1)C(=O)N[C@@H](CCCN)C(=O)N[C@H]1CCCNC(=O)CNC(=O)[C@H](CCN)NC(=O)[C@@H](Cc2ccc(O)cc2)NC(=O)[C@H](CC(C)C)NC(=O)[C@H]([C@@H](C)CC)NC(=O)[C@@H](C(C)C)NC1=O [synAQU2-C3] (Myristoyl-F[Orn][Orn][dV]IL[dY][Dab]G; lactam 3-C)	> 64 µg/mL	8 µg/mL (≈ 6.5 µM)	4 µg/mL (≈ 3.25 µM)	> 64 µg/mL	8 µg/mL (≈ 6.5 µM)	8 µg/mL (≈ 6.5 µM)	> 64 µg/mL	32 µg/mL (≈ 26 µM)	> 64 µg/mL	> 64 µg/mL	> 64 µg/mL	32 µg/mL (≈ 26 µM)	> 64 µg/mL	> 64 µg/mL	> 64 µg/mL	16 µg/mL (≈ 13 µM)	16 µg/mL (≈ 13 µM)	> 64 µg/mL	8 µg/mL (≈ 6.5 µM)	2 µg/mL (≈ 1.62 µM)	MIC Escherichia coli DH5α (Escherichia coli DH5α): > 64 µg/mL; MIC Enterococcus faecium 35682 [6, 26]: 8 µg/mL (≈ 6.5 µM); MIC Pseudomonas aeruginosa PAO1 [12, 26]: 32 µg/mL (≈ 26 µM); MIC Staphylococcus aureus USA300 [18, 26]: > 64 µg/mL; MIC Vibrio alginolyticus XSBZ14 [21]: 16 µg/mL (≈ 13 µM); MIC Candida albicans ATCC 10231 [22]: > 64 µg/mL; MIC Candida albicans ATCC 64550 [23]: > 64 µg/mL
CCCCC[C@@H]1CC(=O)N[C@@H](CN)C(=O)N[C@@H](Cc2ccccc2)C(=O)N[C@@H](CCN)C(=O)N[C@@H]([C@@H](C)O)C(=O)N[C@H](Cc2ccccc2)C(=O)N[C@@H](CN)C(=O)N[C@H](CC(C)C)C(=O)N[C@@H](C(C)C)C(=O)N[C@@H](CC(=O)O)C(=O)O1 [synAQU3-cFA] ([Dap]F[Dab]T[dF][Dap][dL]VD; linker N-C via X3)	64 µg/mL (≈ 56.3 µM)	> 64 µg/mL	64 µg/mL (≈ 56.3 µM)	> 64 µg/mL	> 64 µg/mL	16 µg/mL (≈ 14.1 µM)	> 64 µg/mL	> 64 µg/mL	> 64 µg/mL	> 64 µg/mL	> 64 µg/mL	> 64 µg/mL	32 µg/mL (≈ 28.1 µM)	> 64 µg/mL	64 µg/mL (≈ 56.3 µM)	> 64 µg/mL	> 64 µg/mL	> 64 µg/mL	32 µg/mL (≈ 28.1 µM)	8 µg/mL (≈ 7.03 µM)	MIC Enterococcus faecium 35682 [6, 26]: 32 µg/mL (≈ 28.1 µM); MIC Pseudomonas aeruginosa PAO1 ([12]; PAO1, 16 h): 64 µg/mL (≈ 56.3 µM); MIC Staphylococcus aureus USA300 [18, 26]: > 64 µg/mL; MIC Vibrio alginolyticus XSBZ14 [21]: > 64 µg/mL; MIC Candida albicans ATCC 10231 [22]: 32 µg/mL (≈ 28.1 µM); MIC Candida albicans ATCC 64550 [23]: 32 µg/mL (≈ 28.1 µM)
CCCCCCCCCCCCCC(=O)N[C@@H](CCCN)C(=O)N[C@H](Cc1ccc(O)cc1)C(=O)N[C@@H](C(=O)N[C@H]1C(=O)N[C@H](CCCN)C(=O)N[C@@H](CCCN)C(=O)N[C@H](C(C)C)C(=O)N[C@@H]([C@@H](C)CC)C(=O)N[C@@H](CC(C)C)C(=O)N[C@H](CCCN)C(=O)N[C@@H]([C@@H](C)O)C(=O)N[C@@H](C)C(=O)O[C@H]1C)C(C)C [synAQU6-C4] (Myristoyl-[Orn][dY][dV][dT][dOrn][Orn][dV]IL[dOrn]TA; ester 4-C)	> 64 µg/mL	32 µg/mL (≈ 20.9 µM)	32 µg/mL (≈ 20.9 µM)	> 64 µg/mL	> 64 µg/mL	2 µg/mL (≈ 1.31 µM)	> 64 µg/mL	> 64 µg/mL	32 µg/mL (≈ 20.9 µM)	16 µg/mL (≈ 10.5 µM)	32 µg/mL (≈ 20.9 µM)	32 µg/mL (≈ 20.9 µM)	> 64 µg/mL	32 µg/mL (≈ 20.9 µM)	32 µg/mL (≈ 20.9 µM)	16 µg/mL (≈ 10.5 µM)	16 µg/mL (≈ 10.5 µM)	> 64 µg/mL	4 µg/mL (≈ 2.62 µM)	4 µg/mL (≈ 2.62 µM)	MIC Escherichia coli DH5α (Escherichia coli DH5α): 8 µg/mL (≈ 5.24 µM); MIC Enterococcus faecium 35682 ([6]; 35682, 16 h): 32 µg/mL (≈ 20.9 µM); MIC Pseudomonas aeruginosa PAO1 ([12]; PAO1, 16 h): 16 µg/mL (≈ 10.5 µM); MIC Staphylococcus aureus USA300 ([18]; USA300, 16 h): > 64 µg/mL; MIC Vibrio alginolyticus XSBZ14 [21]: > 64 µg/mL; MIC Candida albicans ATCC 10231 [22]: > 64 µg/mL; MIC Candida albicans ATCC 64550 [23]: > 64 µg/mL
Daptomycin																					antibacterial activity (MIC) S. aureus USA300 [18]: 1 µg/mL; antibacterial activity (MIC) S. aureus USA300 Cls2A338stop [24]: 1 µg/mL; antibacterial activity (MIC) S. aureus USA300 MprFT345A [25]: 16 µg/mL; increase in MIC against resistant mutant compared to wild type ([25]; S. aureus USA300 MprF^T345A vs wild type): 16 fold
Telomycin																					antibacterial activity (MIC) S. aureus USA300 [18]: 4 µg/mL; antibacterial activity (MIC) S. aureus USA300 Cls2A338stop [24]: 128 µg/mL; increase in MIC against resistant mutant compared to wild type ([24]; S. aureus USA300 Cls2^A338stop vs wild type): 32 fold; antibacterial activity (MIC) S. aureus USA300 MprFT345A [25]: 4 µg/mL
